Experimental data published in US12544375B2, “Small molecule therapeutic for parkinson's disease paired with a biomarker of therapeutic activity” (The Board of Trustees of the Leland Stanford Junior …, priority 2019, dated 2026).

Target: T1, DMiro (Drosophila melanogaster, UniProt Q8IMX7)
T1 construct: PD flies were fed with 2.5 μM Miro1 Reducer for the indicated time periods and lysed for blotting DMiro; from tissue; host or cells: whole flies (mutant LRRK2, PINK1 null) or heads (mutant SNCA flies)
T1 sequence (Q8IMX7 1-652): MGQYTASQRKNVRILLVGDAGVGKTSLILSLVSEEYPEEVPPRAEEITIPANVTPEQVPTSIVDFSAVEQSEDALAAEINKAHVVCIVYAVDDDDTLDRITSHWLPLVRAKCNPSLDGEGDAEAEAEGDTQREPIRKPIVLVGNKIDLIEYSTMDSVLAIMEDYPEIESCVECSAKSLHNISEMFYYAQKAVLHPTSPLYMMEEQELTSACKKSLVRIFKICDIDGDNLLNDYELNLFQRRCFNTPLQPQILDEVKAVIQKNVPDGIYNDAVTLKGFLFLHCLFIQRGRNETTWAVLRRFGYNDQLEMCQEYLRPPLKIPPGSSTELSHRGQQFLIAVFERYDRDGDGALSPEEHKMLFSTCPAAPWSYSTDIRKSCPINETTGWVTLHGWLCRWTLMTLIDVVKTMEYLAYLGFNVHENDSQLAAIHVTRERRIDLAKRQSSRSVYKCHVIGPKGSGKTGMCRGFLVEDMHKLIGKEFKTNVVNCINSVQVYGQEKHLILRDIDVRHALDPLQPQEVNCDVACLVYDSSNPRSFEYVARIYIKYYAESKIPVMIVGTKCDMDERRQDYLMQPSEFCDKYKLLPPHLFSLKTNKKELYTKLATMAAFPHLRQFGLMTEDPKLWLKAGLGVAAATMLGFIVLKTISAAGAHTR
Assay: DMiro level in PD flies fed compound, Western blot
Format: in vivo, fly
Details: 2.5 μM, mutant LRRK2, PINK1 and SNCA flies
Description: FIG. 8. Related to FIG. 2-4. Miro1 Reducer in Human Cell and Fly Models. (A) Fibroblasts from Healthy-1 and PD-2 were treated, lysed, and blotted as indicated. Band intensities are normalized to those of GAPDH from the same blots and compared to “Healthy-1, no treatment”. n=4 independent experiments. (B) Fibroblasts from PD-2 were treated and immunostained as indicated. The intensity was quantified for each cell across 264-320 cells from 3 independent experiments, compared to “no treatment”. (C) Fibroblasts were treated, immunoprecipitated (IPed) with anti-Miro1, and blotted as indicated. Similar results were observed twice. (D) Similar as in (C), fibroblasts were treated as indicated, and IPed with anti-Miro1. The GTPase activity of the IPed Miro1 protein was measured as described in Method. […] The MitoSox intensity was quantified for each cell across 106-161 cells from 3 coverslips. […] The TMRM intensity was measured for each cell across 48-60 cells from 3 independent experiments, and expressed as a fraction of the mean of “Healthy-1, no treatment”. […] The movement (the intensity of non-yellow) was quantified for each cell as described in (Tsai et al., 2014) across 22-31 cells from 3 transfections. […] (1) Left: The percentage of TH-positive iPSC-derived neurons out of total cells (Dapi-positive) is calculated after immunocytochemistry under 20× as described in FIG. 3. […]

## O=C(Nc1ccc(Nc2cc(-n3ccnc3)ncn2)cc1)Nc1cccc(F)c1 [Miro1 Reducer]
  DMiro band intensity in PD flies: trend of DMiro reduction
